Assay results: patent US20090124643A1, “Use of a Cannabinoid CB1 Receptor Antagonist for Preparation of Drugs Useful for the Prevention and Treatment of Benign Prostatic Hypertrophy” (SANOFI-AVENTIS, priority 2006, published 2009)

Tests used:
[1] = test system: testosterone-induced BPH; experiment: Treatment of testosterone-induced BPH in rats; type: in vivo, rat; conditions: for Decrease in volume of total prostate / Decrease in volume of ventral prostate / Decrease in weight of total prostate / Decrease in weight of ventral prostate: % of the increase preinduced with testosterone
Experimental: Treatment of Testosterone-Induced BPH in Rats
Male rats are implanted with catheters and receive 18.75 mg per rat of testosterone, subcutaneously at D-4.
From day D0 to day D21, they receive rimonabant daily, at the dose of either 10 mg/kg per os, or of 30 mg/kg per os.
At day D22, the animals are sacrificed and their prostate is analyzed.
This decrease is evaluated as % of the increase preinduced with testosterone.

[2] = test system: BPH in spontaneously hypertensive rats; experiment: Treatment of BPH in spontaneously hypertensive rats (SHR), qualitative histological study of the prostate lobes; type: in vivo, rat; conditions: SHR rats treated for 28 days, from 10 mg/kg onward
Experimental: Treatment of BPH in Spontaneously Hypertensive Rats
The spontaneously hypertensive rat (SHR) model as described by Golomb et al., J. Androl. (2000), 21(1), 58-64 and Matituahou et al., J. Androl. (2003) 24(2), 263-9 is used.
A qualitative histological study of the prostate lobes is carried out on untreated SHR rats and on rats treated for 28 days with 10 mg/kg or 30 mg/kg of rimonabant.

[3] = rimonabant 10 mg/kg/d per os, D0 to D21
[4] = rimonabant 30 mg/kg/d per os, D0 to D21

| SMILES | Weight and volume of the prostate ([1]; chronic treatment with rimonabant, 10 or 30 mg/kg per os daily, D0 to D21) | Decrease in volume of total prostate [1, 3] [%] | Decrease in volume of ventral prostate [1, 3] [%] | Decrease in weight of total prostate [1, 3] [%] | Decrease in weight of ventral prostate [1, 3] [%] | Decrease in volume of total prostate [1, 4] [%] | Decrease in volume of ventral prostate [1, 4] [%] | Decrease in weight of total prostate [1, 4] [%] | Decrease in weight of ventral prostate [1, 4] [%] | Histology of the ventral prostate lobes [2] | Increase in weight and volume of the total prostate and of the ventral prostate ([1]; pretreatment with testosterone 18.75 mg per rat, subcutaneously at D-4) |
| --- | --- | --- | --- | --- | --- | --- | --- | --- | --- | --- | --- |
| Cc1c(C(=O)NN2CCCCC2)nn(-c2ccc(Cl)cc2Cl)c1-c1ccc(Cl)cc1 [Rimonabant, N-piperidino-5-(4-chlorophenyl)-1-(2,4-dichlorophenyl)-4-methylpyrazole-3-carboxamide] | significant decrease | 64 | 88 | 54 | 87 | 87 | 100 | 73 | 95 | the tissues are normal and non-hypertrophied |  |
| C[C@]12CC[C@H]3[C@@H](CCC4=CC(=O)CC[C@@]43C)[C@@H]1CC[C@@H]2O [testosterone] |  |  |  |  |  |  |  |  |  |  | approximately 35% |
